The record followed here is the supplement of paper PMC10307832.

Common to all, as to experiment: relative viability (nuclei count vs DMSO), 5 days (fraction); higher = more cells survive
Compound in experiment [1]: C=CCn1c(=O)c2cnc(Nc3ccc(N4CCN(C)CC4)cc3)nc2n1-c1cccc(C(C)(C)O)n1 [Adavosertib]
In a few lines:
(§1)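 Only plates meeting two conditions passed: control CV below 25% and at least one doubling. Lung cancer cell lines, kept overnight at 37 °C in 1536-well plates, were pinned with five library-drug doses (not always all listed) √10 apart on vehicle-anchored plates and grown 5 days without medium change. A one-step fix, permeabilisation and Hoechst stain preceded 4× imaging and MetaXpress nuclear counting. Viability equals treated-well nuclei divided by vehicle-well nuclei, as the median over plates.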

Compound in experiment [2]: COc1nc(N)nc2c1ncn2[C@@H]1O[C@H](CO)[C@@H](O)[C@@H]1O [Nelarabine]
An outline of the steps:
as §1

Compound in experiment [3]: COc1nc(N)nc2c1ncn2[C@@H]1O[C@H](CO)[C@@H](O)[C@@H]1O [Nelarabine] + CC1(C)CCC(c2ccc(Cl)cc2)=C(CN2CCN(c3ccc(C(=O)NS(=O)(=O)c4ccc(N[C@H](CCN5CCOCC5)CSc5ccccc5)c(S(=O)(=O)C(F)(F)F)c4)cc3)CC2)C1 [Navitoclax] (partner 0.5 µM)
An outline of the steps:
(§2)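 The day after seeding in 1536-well plates, lung cancer cell lines were treated by pin tool with a single drug, or with a fixed anchor-drug dose together with five library-drug doses (not always all listed) in √10 steps. After 5 days, a combined fix-and-stain solution (final 0.05% Triton X-100, 1% formaldehyde, 1 ug/ml Hoechst) was added. Nuclei counted on 4× images gave relative viability as treated counts over vehicle counts, reported as the median of duplicate plates.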

Compound in experiment [4]: C=CCn1c(=O)c2cnc(Nc3ccc(N4CCN(C)CC4)cc3)nc2n1-c1cccc(C(C)(C)O)n1 [Adavosertib] + CC(=O)Nc1cccc(-n2c(=O)n(C3CC3)c(=O)c3c(Nc4ccc(I)cc4F)n(C)c(=O)c(C)c32)c1 [Trametinib] (partner 0.02 µM)
In a few lines:
as §2

With NCI-H520, the relative viability worked out at 0.948 in experiment [1] (0.01 µM); 0.876 in experiment [1] (0.03162 µM); 1 in experiment [1] (0.1 µM); 0.879 in experiment [1] (0.3162 µM); 1.2 in experiment [2] (0.01 µM); 1.02 in experiment [2] (0.03162 µM). Further, the relative viability in experiment [2] (0.1 µM) is 1.1; in experiment [2] (0.3162 µM), 0.941; in experiment [2] (1 µM) it was 1.01; in experiment [3] (first compound 0.01 µM), 1.32; in experiment [3] (first compound 0.03162 µM), 0.999; in experiment [3] (first compound 0.1 µM) it was 1.28. The relative viability in experiment [3] (first compound 0.3162 µM) was found to be 1.18; in experiment [3] (first compound 1 µM) it was 1.37; in experiment [4] (first compound 0.01 µM), 0.797; in experiment [4] (first compound 0.03162 µM), 0.65; in experiment [4] (first compound 0.1 µM), 0.634; in experiment [4] (first compound 0.3162 µM) it was 0.629.
Take RERF-LC-KJ: the relative viability is 1.01 in experiment [1] (0.01 µM); 0.971 in experiment [1] (0.03162 µM); 1.02 in experiment [1] (0.1 µM); 0.994 in experiment [1] (0.3162 µM); 1.18 in experiment [2] (0.01 µM); 1.09 in experiment [2] (0.03162 µM). Also, the relative viability in experiment [2] (0.1 µM) stood at 1.06; in experiment [2] (0.3162 µM), 1.07; in experiment [2] (1 µM) it was 1.02; in experiment [3] (first compound 0.01 µM), 0.859; in experiment [3] (first compound 0.03162 µM), 1.12; in experiment [3] (first compound 0.1 µM), 0.901. Further, the relative viability in experiment [3] (first compound 0.3162 µM) was 1.08; in experiment [3] (first compound 1 µM), 0.783; in experiment [4] (first compound 0.01 µM) it was 0.782; in experiment [4] (first compound 0.03162 µM) it was 0.853; in experiment [4] (first compound 0.1 µM), 0.851; in experiment [4] (first compound 0.3162 µM), 0.929.
Take NCI-H441: the relative viability in experiment [1] (0.01 µM) was 1.16; in experiment [1] (0.03162 µM) it was 1.01; in experiment [1] (0.1 µM), 1.19; in experiment [1] (0.3162 µM), 1.02; in experiment [2] (0.01 µM), 1.31; in experiment [2] (0.03162 µM), 1.11. Moreover, the relative viability in experiment [2] (0.1 µM) was determined as 0.987; in experiment [2] (0.3162 µM) it was 1.14; in experiment [2] (1 µM), 1.09; in experiment [3] (first compound 0.01 µM) it was 1.13; in experiment [3] (first compound 0.03162 µM), 0.707; in experiment [3] (first compound 0.1 µM), 0.912. In addition, the relative viability in experiment [3] (first compound 0.3162 µM) is 0.5; in experiment [3] (first compound 1 µM), 0.49; in experiment [4] (first compound 0.01 µM) it was 0.432; in experiment [4] (first compound 0.03162 µM) it was 0.509; in experiment [4] (first compound 0.1 µM) it was 0.373; in experiment [4] (first compound 0.3162 µM), 0.423.
NCI-H1666: the relative viability was determined as 0.975 in experiment [1] (0.01 µM); 1 in experiment [1] (0.03162 µM); 1.05 in experiment [1] (0.1 µM); 0.997 in experiment [1] (0.3162 µM); 1.05 in experiment [2] (0.01 µM); 1.15 in experiment [2] (0.03162 µM). The relative viability came out at 0.978 in experiment [2] (0.1 µM); 0.97 in experiment [2] (0.3162 µM); 0.967 in experiment [2] (1 µM); 1.08 in experiment [3] (first compound 0.01 µM); 1.08 in experiment [3] (first compound 0.03162 µM); 0.807 in experiment [3] (first compound 0.1 µM). Also, the relative viability came out at 1.07 in experiment [3] (first compound 0.3162 µM); 0.937 in experiment [3] (first compound 1 µM); 0.797 in experiment [4] (first compound 0.01 µM); 0.782 in experiment [4] (first compound 0.03162 µM); 1.02 in experiment [4] (first compound 0.1 µM); 0.813 in experiment [4] (first compound 0.3162 µM).
For the cell line NCI-H1755, the relative viability came out at 1.02 in experiment [1] (0.01 µM); 0.998 in experiment [1] (0.03162 µM); 0.958 in experiment [1] (0.1 µM); 0.86 in experiment [1] (0.3162 µM); 1.01 in experiment [2] (0.01 µM); 0.948 in experiment [2] (0.03162 µM). The relative viability stood at 0.988 in experiment [2] (0.1 µM); 1.1 in experiment [2] (0.3162 µM); 1.1 in experiment [2] (1 µM); 1.06 in experiment [3] (first compound 0.01 µM); 0.846 in experiment [3] (first compound 0.03162 µM); 0.555 in experiment [3] (first compound 0.1 µM). Also, the relative viability in experiment [3] (first compound 0.3162 µM) was 1.14; in experiment [3] (first compound 1 µM), 1.03; in experiment [4] (first compound 0.01 µM), 0.818; in experiment [4] (first compound 0.03162 µM) it was 0.78; in experiment [4] (first compound 0.1 µM), 0.818; in experiment [4] (first compound 0.3162 µM), 0.744.
Take COR-L23: the relative viability is 1.14 in experiment [1] (0.01 µM); 1.02 in experiment [1] (0.03162 µM); 1.03 in experiment [1] (0.1 µM); 0.585 in experiment [1] (0.3162 µM); 1.49 in experiment [2] (0.01 µM); 1.21 in experiment [2] (0.03162 µM). The relative viability in experiment [2] (0.1 µM) worked out at 0.96; in experiment [2] (0.3162 µM), 1.06; in experiment [2] (1 µM), 1.07; in experiment [3] (first compound 0.01 µM), 1.4; in experiment [3] (first compound 0.03162 µM) it was 1.14; in experiment [3] (first compound 0.1 µM), 1.09. Further, the relative viability in experiment [3] (first compound 0.3162 µM) stood at 1.04; in experiment [3] (first compound 1 µM), 0.977; in experiment [4] (first compound 0.01 µM) it was 0.622; in experiment [4] (first compound 0.03162 µM), 0.577; in experiment [4] (first compound 0.1 µM) it was 0.565; in experiment [4] (first compound 0.3162 µM), 0.251.
As to SK-LU-1, the relative viability in experiment [1] (0.01 µM) was determined as 1.1; in experiment [1] (0.03162 µM), 1.04; in experiment [1] (0.1 µM) it was 0.886; in experiment [1] (0.3162 µM), 0.488; in experiment [2] (0.01 µM), 1.35; in experiment [2] (0.03162 µM) it was 0.885. Moreover, the relative viability came out at 1.1 in experiment [2] (0.1 µM); 1.2 in experiment [2] (0.3162 µM); 1.18 in experiment [2] (1 µM); 0.773 in experiment [3] (first compound 0.01 µM); 0.485 in experiment [3] (first compound 0.03162 µM); 0.84 in experiment [3] (first compound 0.1 µM). For the same cell line, the relative viability in experiment [3] (first compound 0.3162 µM) is 0.79; in experiment [3] (first compound 1 µM), 0.79; in experiment [4] (first compound 0.01 µM) it was 0.611; in experiment [4] (first compound 0.03162 µM), 0.505; in experiment [4] (first compound 0.1 µM) it was 0.509; in experiment [4] (first compound 0.3162 µM), 0.316.
